In US20230416314A1, “MODIFIED HIGH MOLECULAR WEIGHT GLUTENIN SUBUNIT AND USES THEREOF” (Ukko Inc., priority 2020, published 2023):
Like-named read-outs stand apart in the source and are kept apart here. Residues, ends and D or L forms follow the SMILES beside them. No end group written: not given here.

Columns and labels:
[1] = molecular target: HLA-DQ2.2 (Homo sapiens, UniProt P01909+P01920, A45G/A70V/C70K/D167G/D89A/E106A/E183D/E77G/E98D/F237L/F77L/G63E/H199R/I129T/K197E/L107V/L178F/L74F/N214S/P84L/P87L/Q57E/Q76R/R75H/S185I/S97I/T103K/T109R/T172A/T60S/V73L/V78E/V99I/Y48F/Y58L/Y62S/Y69I/Y79F); test: MHC II/peptide competition binding assay, HLA-DQ2.2
Procedure: (§1) One skilled in the art would appreciate that the 15-mers used included shorter de-epitoped high molecular weight glutenin peptide sequences (mutated repeating antigenic units), as described throughout. For example, Table 2 provides a listing of 15-mers and the shorter mutated repeating antigenic units present therein. […] MHC II molecules were purified by affinity chromatography, and peptides were radiolabeled using the chloramine T method. After an incubation period, the bound and unbound radiolabeled species were separated, and their relative amounts were determined by either size-exclusion gel-filtration chromatography or monoclonal antibody capture of MHC. The percent of bound radioactivity was then determined.

[2] = molecular target: HLA-DQ8 (Homo sapiens, UniProt P01909+P01920, A209T/A45G/C70Q/D89A/DUP78-78/E183D/E77G/F237L/G63E/H199R/I129T/K197E/L178F/L74F/L98V/Q57E/Q76R/S185I/S97I/T217I/T49S/V73L/Y58L); test: MHC II/peptide competition binding assay, HLA-DQ8
Procedure: as §1

[3] = molecular target: HLA-DQ7.5 (Homo sapiens, UniProt P01909+P01920); test: MHC II/peptide competition binding assay, HLA-DQ7.5
Procedure: The peptides were synthesized as purified material on the 2 mg scale with free acid C-termini (A&A labs, USA). One skilled in the art would appreciate that the 15-mers used included shorter de-epitoped high molecular weight glutenin peptide sequences (mutated repeating antigenic units), as described throughout. For example, Table 2 provides a listing of 15-mers and the shorter mutated repeating antigenic units present therein.
Briefly, competition assays using different concentrations of wild-type (WT) and modified glutenin peptides were conducted by diluting the peptides in NP40 buffer, and incubation for 2-4 days with purified MHC II and a radiolabeled known MHC binding peptide (peptide probe). MHC II molecules were purified by affinity chromatography, and peptides were radiolabeled using the chloramine T method. After an incubation period, the bound and unbound radiolabeled species were separated, and their relative amounts were determined by either size-exclusion gel-filtration chromatography or monoclonal antibody capture of MHC. The percent of bound radioactivity was then determined.

[4] = molecular target: HLA-DQ2.5 (Homo sapiens, UniProt P01909+P01920, A45G/A70V/D89A/E106A/E77G/E98D/H199R/L107V/N214S/P84L/P87L/T103K/T109R/T172A/T60S/V78E/V99I/Y58L/Y62S/Y69I/Y79F); test: MHC II/peptide competition binding assay, HLA-DQ2.5
Procedure: as §1

[5] = system: Gluten-reactive T-cell lines (TCLs) from celiac disease patients' biopsies; test: T-cell activation assay (IFN-γ ELISA); assay type: cell-based, human; details: peptides 10 μM, 48 h; positive if IFNγ ≥2-fold vs control and significantly higher (one-sided t-test)
Procedure: 200 mg of protein were first incubated in 5% formic acid with 4 mg pepsin for 4 hours in 37° C. Then the sample was evaporated using speedVac. On the following day, the protein was incubated with 4 mg chymotrypsin in 20 mM ammonium-bicarbonate for 4 hours in 37° C., followed by speedVac evaporation. The concentration of the digest was then measured, and the digest was deamidated using transglutaminase, 2 U per 7 mg digest for 6 hours in 37° C. The samples were then cleaned using a C18 column, dried and resuspended in media at a concentration of 2 mg/ml. […]
TCLs from celiac disease patients' biopsies were assayed for responses to deamidated PCT-HMW proteins and HMW peptides by the detection of IFN-7 by enzyme-linked immunosorbent assay (ELISA), as previously described (Gianfrani, Carmen, et al. “Gliadin-specific type 1 regulatory T cells from the intestinal mucosa of treated celiac patients inhibit pathogenic T cells.” The journal of immunology 177.6 (2006): 4178-4186.). […] The reaction was stopped, and the plate was read on the ELISA plate reader at […]. The results were analyzed using Graphpad Prism and IFNγ levels were determined. […]

[6] = molecular target: HLA-DQ7.5; test: MHC II competition binding assay (purified MHC II, radiolabeled probe peptide as competitor)
[7] = molecular target: HLA-DQ2.2; test: as above
[8] = molecular target: HLA-DQ8; test: as above
[9] = molecular target: HLA-DQ2.5; test: as above
[10] = Table 3, 15-mer peptides, >40000 signifies binding is undetectable by assay

Molecule: CC(C)C[C@H](NC(=O)[C@H](CO)NC(=O)[C@@H](NC(=O)[C@@H]1CCCN1C(=O)[C@H](Cc1ccc(O)cc1)NC(=O)[C@H](Cc1ccc(O)cc1)NC(=O)CNC(=O)[C@@H]1CCCN1C(=O)[C@H](CCC(N)=O)NC(=O)CNC(=O)[C@@H](N)CCC(N)=O)[C@@H](C)O)C(=O)N[C@H](C(=O)N[C@@H](CCC(N)=O)C(=O)N[C@@H](CO)C(=O)NCC(=O)O)[C@@H](C)O [SEQ ID NO: 147] (H-QGQPGYYPTSLTQSG-OH)
- IC50 [1]: > 40 µM
- IC50 [2]: > 40 µM
- IC50 [3]: > 40 µM
- IC50 [4]: > 40 µM

Molecule: C[C@@H](O)[C@H](NC(=O)[C@H](CO)NC(=O)[C@@H](NC(=O)[C@@H]1CCCN1C(=O)[C@H](Cc1ccc(O)cc1)NC(=O)[C@H](Cc1c[nH]cn1)NC(=O)[C@H](Cc1c[nH]c2ccccc12)NC(=O)[C@H](CCC(=O)O)NC(=O)[C@H](CCC(N)=O)NC(=O)CNC(=O)[C@@H](N)CCC(N)=O)[C@@H](C)O)C(=O)N[C@@H](CCC(=O)O)C(=O)N[C@@H](CCC(N)=O)C(=O)N[C@@H](CO)C(=O)NCC(=O)O [P1h] (H-QGQEWHYPTSTEQSG-OH)
- IC50 [1, 10]: 5.72 µM
- IC50 [2, 10]: > 40 µM
- IC50 [3, 10]: > 40 µM
- IC50 [4, 10]: > 40 µM

Molecule: C[C@@H](O)[C@H](NC(=O)[C@@H]1CCCN1C(=O)[C@H](Cc1ccc(O)cc1)NC(=O)[C@H](Cc1ccc(O)cc1)NC(=O)CNC(=O)[C@H](CCCCN)NC(=O)[C@H](CCC(N)=O)NC(=O)CNC(=O)[C@@H](N)CCC(N)=O)C(=O)N[C@@H](CO)C(=O)N1CCC[C@H]1C(=O)N[C@@H](Cc1c[nH]cn1)C(=O)N[C@@H](CCC(N)=O)C(=O)N[C@@H](CO)C(=O)NCC(=O)O [SEQ ID NO: 143] (H-QGQKGYYPTSPHQSG-OH; N-terminus assumed)
- IC50 [2]: > 40 µM
- IC50 [4]: 34.4 µM
- T-cell activation (IFN-γ levels by ELISA) [5]: abolishment of T-cell activation

Molecule: C[C@@H](O)[C@H](NC(=O)[C@@H]1CCCN1C(=O)[C@H](Cc1ccc(O)cc1)NC(=O)[C@H](CCCNC(=N)N)NC(=O)CNC(=O)[C@H](CCC(=O)O)NC(=O)[C@H](CCC(N)=O)NC(=O)CNC(=O)[C@@H](N)CCC(N)=O)C(=O)N[C@@H](CO)C(=O)N1CCC[C@H]1C(=O)N[C@@H](CCCCN)C(=O)N[C@@H](CCC(N)=O)C(=O)N[C@@H](CO)C(=O)NCC(=O)O [SEQ ID NO: 146] (H-QGQEGRYPTSPKQSG-OH)
- IC50 [1]: > 40 µM
- IC50 [2]: > 40 µM
- IC50 [3]: > 40 µM
- IC50 [4]: > 40 µM

Molecule: CC(C)C[C@H](NC(=O)[C@H](CO)NC(=O)[C@@H](NC(=O)[C@@H]1CCCN1C(=O)[C@H](Cc1ccc(O)cc1)NC(=O)[C@H](Cc1ccc(O)cc1)NC(=O)CNC(=O)[C@H](Cc1c[nH]cn1)NC(=O)[C@H](CCC(N)=O)NC(=O)CNC(=O)[C@@H](N)CCC(N)=O)[C@@H](C)O)C(=O)N[C@@H](Cc1c[nH]cn1)C(=O)N[C@@H](CCC(N)=O)C(=O)N[C@@H](CO)C(=O)NCC(=O)O [P1f] (H-QGQHGYYPTSLHQSG-OH)
- IC50 [1, 10]: > 40 µM
- IC50 [2, 10]: > 40 µM
- IC50 [3, 10]: > 40 µM
- IC50 [4, 10]: > 40 µM

Molecule: CC(C)C[C@H](NC(=O)CNC(=O)[C@H](CCCNC(=N)N)NC(=O)CNC(=O)[C@H](CCC(=O)O)NC(=O)[C@H](CCC(N)=O)NC(=O)CNC(=O)[C@@H](N)CCC(N)=O)C(=O)N[C@H](C(=O)N[C@@H](CO)C(=O)N1CCC[C@H]1C(=O)N[C@@H](Cc1c[nH]cn1)C(=O)N[C@@H](CCC(N)=O)C(=O)N[C@@H](CO)C(=O)NCC(=O)O)[C@@H](C)O [SEQ ID NO: 144] (H-QGQEGRGLTSPHQSG-OH)
- IC50 [1]: > 40 µM
- IC50 [2]: > 40 µM
- IC50 [3]: 39.3 µM
- IC50 [4]: > 40 µM

Molecule: C[C@@H](O)[C@H](NC(=O)[C@@H]1CCCN1C(=O)[C@H](CC(=O)O)NC(=O)[C@H](Cc1ccc(O)cc1)NC(=O)CNC(=O)[C@H](CO)NC(=O)[C@H](CCC(N)=O)NC(=O)CNC(=O)[C@@H](N)CCC(N)=O)C(=O)N[C@@H](CO)C(=O)N1CCC[C@H]1C(=O)N[C@H](C(=O)N[C@@H](CCC(N)=O)C(=O)N[C@@H](CO)C(=O)NCC(=O)O)[C@@H](C)O [P1d] (H-QGQSGYDPTSPTQSG-OH)
- IC50 [1, 10]: > 40 µM
- IC50 [2, 10]: > 40 µM
- IC50 [3, 10]: > 40 µM
- IC50 [4, 10]: > 40 µM

Molecule: QGAAGYYPTSPRQSG-OH [P1c, modified 15-mer peptide … (SEQ ID NO: 51)]
- IC50 [6]: 19.9 µM

Molecule: QGQEWHYPTSTEQSG-OH [P1h, modified 15-mer peptide … (SEQ ID NO: 56)]
- IC50 [7]: 5.72 µM

Molecule: QGQEGRGLTSPHQSG-OH [modified 15-mer peptide … (SEQ ID NO: 144)]
- IC50 [6]: 39.3 µM

Molecule: QGQQGYYPTSPQQSG-OH [P1a, native HMW glutenin 15-mer peptide … (SEQ ID NO: 49)]
- IC50 [8]: 14.2 µM
- IC50 [9]: 29.8 µM

Molecule: QGQEGYYPTSPEQSG-OH [P1b, deamidated HMW glutenin 15-mer peptide … (SEQ ID NO: 50)]
- IC50 [8]: 3.75 µM
- IC50 [9]: 3.29 µM

Molecule: QGQEGHGPASPKQSG-OH [modified 15-mer peptide … (SEQ ID NO: 174)]
- IC50 [6]: 16.4 µM

Molecule: QGQEPYGPSSPEQSG-OH [modified 15-mer peptide … (SEQ ID NO: 176)]
- IC50 [6]: 28.6 µM

Molecule: QGQPRYYPTSPRQSG-OH [P1e, modified 15-mer peptide … (SEQ ID NO: 53)]
- IC50 [6]: 19.4 µM
- IC50 [8]: 32.5 µM
- IC50 [9]: 33.2 µM
